Measured values reported in ChEMBL document CHEMBL2074151, “Molecular identification of a rat novel organic anion transporter moat1, which transports prostaglandin D(2), leukotriene C(4), and taurocholate” (Biochem Biophys Res Commun, 2000).

Experiments:
[1] = target: T1, Solute carrier organic anion transporter family member 2B1 (Rattus norvegicus, UniProt Q9JHI3); assay: (§1) TP_TRANSPORTER: uptake in Xenopus laevis oocytes; assay type: functional, cell-based; details: oocyte
T1 sequence (Q9JHI3 whole entry): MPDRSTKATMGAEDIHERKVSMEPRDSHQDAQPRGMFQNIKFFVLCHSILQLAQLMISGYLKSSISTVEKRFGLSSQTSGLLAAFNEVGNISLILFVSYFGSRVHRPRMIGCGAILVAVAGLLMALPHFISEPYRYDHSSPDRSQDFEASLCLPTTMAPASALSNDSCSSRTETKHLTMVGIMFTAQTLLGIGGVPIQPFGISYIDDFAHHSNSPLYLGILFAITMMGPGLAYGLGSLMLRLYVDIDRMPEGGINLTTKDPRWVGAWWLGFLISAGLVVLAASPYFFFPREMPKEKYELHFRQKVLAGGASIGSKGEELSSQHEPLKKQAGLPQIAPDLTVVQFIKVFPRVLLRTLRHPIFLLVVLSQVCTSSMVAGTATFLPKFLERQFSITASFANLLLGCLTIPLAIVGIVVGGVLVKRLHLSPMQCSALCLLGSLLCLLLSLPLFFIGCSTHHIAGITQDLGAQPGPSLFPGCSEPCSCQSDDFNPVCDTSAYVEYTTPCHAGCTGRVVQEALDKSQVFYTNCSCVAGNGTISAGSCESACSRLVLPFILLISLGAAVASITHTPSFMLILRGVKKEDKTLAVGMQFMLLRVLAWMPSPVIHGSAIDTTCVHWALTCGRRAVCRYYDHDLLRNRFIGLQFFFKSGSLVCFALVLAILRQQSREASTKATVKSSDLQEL

[2] = target: T1, Solute carrier organic anion transporter family member 2B1; assay: TP_TRANSPORTER: inhibition of PGD2 uptake in Xenopus laevis oocytes; assay type: functional, cell-based, Oocyte
[3] = substrate: CCCCC/C=C\C\C=C/C=C/C=C/[C@@H](SC[C@@H](NC(=O)CC[C@H](N)C(=O)O)C(=O)NCC(=O)O)[C@@H](O)CCCC(=O)O; assay: as §1; assay type: functional, cell-based, Oocyte
[4] = substrate: CCCCC[C@H](O)/C=C/[C@H]1C(=O)C[C@H](O)[C@@H]1C/C=C\CCCC(=O)O; assay: as §1; assay type: functional, cell-based, Oocyte

Molecule | Activity [1] | IC50 [2] [nM] | Km [3] [µM] | Km [4] [µM]
CC#CCC(C)[C@H](O)/C=C/[C@@H]1[C@H]2C/C(=C/CCCC(=O)O)C[C@H]2C[C@H]1O (stereo not given in full) [ILOPROST] | substrate [+] |  |  | 
CCCCC[C@H](O)/C=C/[C@@H]1[C@@H](C/C=C\CCCC(=O)O)[C@@H](O)C[C@H]1O [DINOPROST] | is not a substrate [-] | 287 |  | 
CCCCC[C@H](O)/C=C/[C@H]1[C@H](O)CC(=O)[C@@H]1C/C=C\CCCC(=O)O [DINOPROSTONE] | substrate [+] |  |  | 
C[C@]12CC[C@H](OS(=O)(=O)O)CC1=CC[C@@H]1[C@@H]2CC[C@]2(C)C(=O)CC[C@@H]12 [PRASTERONE SULFURIC ACID] | is not a substrate [-] |  |  | 
CCCCC[C@H](O)/C=C/[C@H]1OC(O)C[C@H](O)[C@@H]1C/C=C\CCCC(=O)O (stereo not given in full) [THROMBOXANE B2] | substrate [+] |  |  | 
CCCCC[C@H](O)/C=C/[C@H]1[C@H](O)CC(=O)[C@@H]1CCCCCCC(=O)O [ALPROSTADIL] | substrate [+] | 35.8 |  | 
Solute carrier organic anion transporter family member 2B1 (Rattus norvegicus) (protein) MPDRSTKATMGAEDIHERKVSMEPRDSHQDAQPRGMFQNIKFFVLCHSILQLAQLMISGYLKSSISTVEKRFGLSSQTSGLLAAFNEVGNISLILFVSYFGSRVHRPRMIGCGAILVAVAGLLMALPHFISEPYRYDHSSPDRSQDFEASLCLPTTMAPASALSNDSCSSRTETKHLTMVGIMFTAQTLLGIGGVPIQPFGISYIDDFAHHSNSPLYLGILFAITMMGPGLAYGLGSLMLRLYVDIDRMPEGGINLTTKDPRWVGAWWLGFLISAGLVVLAASPYFFFPREMPKEKYELHFRQKVLAGGASIGSKGEELSSQHEPLKKQAGLPQIAPDLTVVQFIKVFPRVLLRTLRHPIFLLVVLSQVCTSSMVAGTATFLPKFLERQFSITASFANLLLGCLTIPLAIVGIVVGGVLVKRLHLSPMQCSALCLLGSLLCLLLSLPLFFIGCSTHHIAGITQDLGAQPGPSLFPGCSEPCSCQSDDFNPVCDTSAYVEYTTPCHAGCTGRVVQEALDKSQVFYTNCSCVAGNGTISAGSCESACSRLVLPFILLISLGAAVASITHTPSFMLILRGVKKEDKTLAVGMQFMLLRVLAWMPSPVIHGSAIDTTCVHWALTCGRRAVCRYYDHDLLRNRFIGLQFFFKSGSLVCFALVLAILRQQSREASTKATVKSSDLQEL |  |  | 3.2 | 0.0355
